Reference: publication PMC4887716 (Iranian Journal of Basic Medical Sciences, 2016)
Read-outs that look alike come from different tables or passages of the source.

Experiments:
[1] = cited from earlier work
[2] = tested on: P-gp; test: In situ single pass intestinal perfusion; conditions: for increase of digoxin Peff: in situ SPIP
[3] = cited from earlier work; remark: listed apart in the source
[4] = tested on: P-gp; conditions: cited from earlier work
[5] = tested on: P-gp; conditions: MDR-MDCK cells; cited from earlier work
[6] = tested on: Caco-2 cells; test: In vitro cytotoxicity study; assay type: cell-based, human; conditions: clemastine 0.01-10 µM, 24 hr incubation

Compound	elimination half-life [1]	therapeutic level in blood plasma [1] [ng/mL]	therapeutic level in blood plasma ([1]; converted from ng/ml) [nM]	increase of digoxin Peff ([2]; 0.5 µM clemastine)	increase of digoxin Peff ([2]; 10 µM clemastine) [%]	solubility in water [3]	P-gp substrate classification [4]	P-gp substrate status from efflux in presence of cyclosporine-A [5]	cytotoxic effect on Caco-2 cells (cell viability, MTT) [6]	Peff of digoxin alone (control) ([2]; 20 µM digoxin, rat jejunum SPIP)
CN1CCC[C@@H]1CCO[C@](C)(c1ccccc1)c1ccc(Cl)cc1 [clemastine]	approximately 21 hr	0.7 to 2	1.5 to 4.4	about 65%	~165	very slightly soluble in water	non-P-gp-substrate	clemastine is a P-gp substrate	no cytotoxic effect	
C[C@H]1O[C@@H](O[C@H]2[C@@H](O)C[C@H](O[C@H]3[C@@H](O)C[C@H](O[C@H]4CC[C@@]5(C)[C@H](CC[C@@H]6[C@@H]5C[C@@H](O)[C@]5(C)[C@@H](C7=CC(=O)OC7)CC[C@]65O)C4)O[C@@H]3C)O[C@@H]2C)C[C@H](O)[C@@H]1O [digoxin]										3.4±0.8 ×10^-5cm/s
